In ChEMBL document CHEMBL3758173, “Identification of β-Amino alcohol grafted 1,4,5 trisubstituted 1,2,3-triazoles as potent antimalarial agents” (Eur J Med Chem, 2016):
Calls of active or inactive are those of the source. The calls are words filed in the database; no cut-off is given here.

How the values were obtained:
Plasmodium falciparum [1] = assay: Antiplasmodial activity against chloroquine sensitive Plasmodium falciparum 3D7 infected in human erythrocytes incubated for 72 hrs by SYBR Green1-based fluorescence analysis; type: functional, organism-based; settings: 3D7, 72 h
[2] = Selectivity index, ratio of CC50 for monkey kidney VERO cells to IC50 for chloroquine resistant Plasmodium falciparum K1 infected in human erythrocytes; type: functional
Plasmodium falciparum [3] = assay: Antiplasmodial activity against chloroquine resistant Plasmodium falciparum K1 infected in human erythrocytes incubated for 72 hrs by SYBR Green1-based fluorescence analysis; type: functional, organism-based; settings: K1, 72 h
[4] = Selectivity index, ratio of CC50 for monkey kidney VERO cells to IC50 for chloroquine sensitive Plasmodium falciparum 3D7 infected in human erythrocytes; type: functional
[5] = Cytotoxicity against monkey kidney Vero cells by resazurin assay; type: cell-based; settings: chlorocebus sabaeus
[6] = Resistance index, ratio of IC50 for chloroquine resistant Plasmodium falciparum K1 infected in human erythrocytes to IC50 for chloroquine sensitive Plasmodium falciparum 3D7 infected in human erythrocytes; type: functional
MCF7 [7] = assay: Upregulation of p53 level in human MCF7 cells at antiplasmodial IC50 after 48 hrs by immnublotting method; type: functional, cell-based; settings: TDE = time-dependent effect
Mus musculus = assay: Toxicity in multidrug-resistant Plasmodium yoelii nigeriensis infected Swiss mouse assessed as mouse survival at 100 mg/kg/day, po for 4 days; type: organism-based; settings: in vivo, 96 h
[8] = tested on: Plasmodium yoelii nigeriensis; assay: Antiplasmodial activity against multidrug-resistant Plasmodium yoelii nigeriensis infected in Swiss mouse assessed as suppression of parasitaemia at 100 mg/kg, po for 4 days by Geimsa-staining based analysis; type: functional; settings: 96 h
MCF7 [9] = assay: Induction of p53 protein expression in human MCF7 cells at antiplasmodial IC50 after 36 hrs by luciferase reporter assay relative to control; type: functional
[10] = Tmax in Sprague-Dawley rat at 100 mg/kg, po after 0 to 48 hrs by LC-MS/MS analysis; type: ADME, organism-based; settings: in vivo
[11] = Apparent oral clearance in Sprague-Dawley rat at 100 mg/kg, po after 0 to 48 hrs by LC-MS/MS analysis; type: ADME, organism-based; settings: in vivo
Rattus norvegicus [12] = assay: AUC(last) in Sprague-Dawley rat at 100 mg/kg, po after 0 to 48 hrs by LC-MS/MS analysis; type: ADME, organism-based; set-up: dose 100 mg/kg, time 0 - last, route oral; settings: in vivo
Rattus norvegicus [13] = assay: Apparent oral volume of distribution in Sprague-Dawley rat at 100 mg/kg, po after 0 to 48 hrs by LC-MS/MS analysis; type: ADME, organism-based; settings: in vivo
MCF7 [14] = assay: Induction of p53 protein expression in human MCF7 cells at antiplasmodial IC50 after 36 hrs by luciferase reporter assay relative to control relative to doxorubicin; type: functional
[15] = Mean residence time(last) in Sprague-Dawley rat at 100 mg/kg, po after 0 to 48 hrs by LC-MS/MS analysis; type: ADME, organism-based; settings: in vivo
[16] = Cmax in Sprague-Dawley rat at 100 mg/kg, po after 0 to 48 hrs by LC-MS/MS analysis; type: ADME, organism-based; set-up: dose 100 mg/kg, route oral; settings: in vivo

| SMILES | IC50 (Plasmodium falciparum [1]) [µM] | Ratio CC50/IC50 [2] | IC50 (Plasmodium falciparum [3]) [µM] | Ratio CC50/IC50 [4] | CC50 [5] [µM] | Ratio IC50 [6] | Activity (MCF7 [7]) | Activity (Mus musculus) | inhibition in vivo at 100 mg/kg [8] [%] | Activity (MCF7 [9]) | Tmax [10] [h] | CL/F [11] [L/h/kg] | AUClast (Rattus norvegicus [12]) [µg·h/mL] | Vd/F (Rattus norvegicus [13]) [L/kg] | fold change (FC) (MCF7 [14]) | MRT last [15] [h] | Cmax [16] [µg/mL] | fold change (FC) (MCF7 [9]) |
| --- | --- | --- | --- | --- | --- | --- | --- | --- | --- | --- | --- | --- | --- | --- | --- | --- | --- | --- |
| CC(C)c1ccc(-c2c(C(O)(CNc3ccc(F)cc3)c3ccc(Cl)cc3)nnn2Cc2ccccc2)cc1 (stereo not given) | 1.58 | >299.4 | 1.67 | >316.45 | > 500 | 1.05 | – | – | – | – | – | – | – | – | – | – | – | – |
| OC(CNc1ccc(Cl)cc1)(c1ccc(Cl)cc1)c1nnn(Cc2ccccc2)c1-c1ccc(F)cc1 (stereo not given) | 2.85 | >242.71 | 2.06 | >175.43 | > 500 | 0.72 | – | – | – | – | – | – | – | – | – | – | – | – |
| OC(CNc1ccc(Br)cc1)(c1ccc(Cl)cc1)c1nnn(Cc2ccc(Br)cc2)c1-c1ccc(Cl)cc1 (stereo not given) | 2.42 | >297.61 | 1.68 | >206.61 | > 500 | 0.69 | – | – | – | – | – | – | – | – | – | – | – | – |
| OC(CNc1ccc(I)cc1)(c1ccc(Cl)cc1)c1nnn(Cc2ccccc2)c1-c1ccc(Cl)cc1 (stereo not given) | 1.48 | >340.1 | 1.47 | >337.83 | > 500 | 0.99 | – | – | – | – | – | – | – | – | – | – | – | – |
| OC(CNc1ccc(F)cc1)(c1ccc(Cl)cc1)c1nnn(Cc2ccccc2)c1-c1ccc(Br)cc1 (stereo not given) | 3.21 | >154.79 | 3.23 | >155.76 | > 500 | 1 | – | – | – | – | – | – | – | – | – | – | – | – |
| OC(CNc1ccccc1Br)(c1ccc(Cl)cc1)c1nnn(Cc2ccccc2)c1-c1ccc(Br)cc1 (stereo not given) | 11.6 | >58.07 | 8.61 | >43.21 | > 500 | 0.74 | – | – | – | – | – | – | – | – | – | – | – | – |
| Cc1ccc(NCC(O)(c2ccc(Cl)cc2)c2nnn(Cc3ccccc3)c2-c2ccc(F)cc2)cc1C (stereo not given) | 2.67 | >178.57 | 2.8 | >187.26 | > 500 | 1.04 | – | – | – | – | – | – | – | – | – | – | – | – |
| OC(CNc1ccc(Br)cc1)(c1ccc(Br)cc1)c1nnn(Cc2ccccc2)c1-c1ccccc1 (stereo not given) | 1.65 | >1000 | 0.5 | >303.03 | > 500 | 0.3 | tde | Non-toxic | 16.8 | Active | – | – | – | – | – | – | – | – |
| OC(CNc1ccc(Br)cc1)(c1ccc(Cl)cc1)c1nnn(Cc2ccccc2)c1-c1ccc(F)cc1 (stereo not given) | 1.1 | >248.75 | 2.01 | >454.54 | > 500 | 1.82 | – | Non-toxic | 64.6 | Active | – | – | – | – | – | – | – | – |
| OC(CNc1ccc(Br)cc1)(c1ccc(Cl)cc1)c1nnn(Cc2ccccc2)c1-c1ccc(Cl)cc1 (stereo not given) | 1.59 | >354.6 | 1.41 | >314.4 | > 500 | 0.88 | – | – | – | – | – | – | – | – | – | – | – | – |
| OC(CNc1ccc2c(c1)OCO2)(c1ccc(Cl)cc1)c1nnn(Cc2ccccc2)c1-c1ccc(Cl)cc1 (stereo not given) | 2.73 | >195.3 | 2.56 | >183.1 | > 500 | 0.93 | – | – | – | – | – | – | – | – | – | – | – | – |
| Cc1ccc(NCC(O)(c2ccc(Cl)cc2)c2nnn(Cc3ccccc3)c2-c2ccc(Cl)cc2)cc1C (stereo not given) | 2.24 | 195.31 | 3.18 | 183.15 | > 500 | 1.41 | – | – | – | – | – | – | – | – | – | – | – | – |
| OC(CNc1ccc(F)cc1)(c1ccc(Br)cc1)c1nnn(Cc2ccccc2)c1-c1ccccc1 (stereo not given) | 2.71 | >108.9 | 4.59 | >184.5 | > 500 | 1.69 | – | – | – | – | – | – | – | – | – | – | – | – |
| OC(CNc1ccc(F)c(F)c1)(c1ccc(Cl)cc1)c1nnn(Cc2ccccc2)c1-c1ccc(Cl)cc1 (stereo not given) | 2.15 | >1000 | 0.5 | >232.55 | > 500 | 0.23 | – | Non-toxic | 89.9 | – | – | – | – | – | – | – | – | – |
| COc1cc(NCC(O)(c2ccc(Cl)cc2)c2nnn(Cc3ccccc3)c2-c2ccc(Cl)cc2)ccc1Br (stereo not given) | 1.65 | >326.29 | 1.53 | >303.3 | > 500 | 0.92 | – | – | – | – | – | – | – | – | – | – | – | – |
| Cc1ccc(C(O)(CNc2ccc(C)c(C)c2)c2nnn(Cc3ccccc3)c2-c2ccc(Cl)cc2)cc1 (stereo not given) | 1.78 | >185.87 | 2.69 | >280.89 | > 500 | 1.51 | – | – | – | – | – | – | – | – | – | – | – | – |
| OC(CNc1ccccc1Br)(c1ccc(Cl)cc1)c1nnn(Cc2ccccc2)c1-c1ccc(F)cc1 (stereo not given) | 9.09 | >59.1 | 8.46 | >55 | > 500 | 0.93 | – | – | – | – | – | – | – | – | – | – | – | – |
| Cc1ccc(NCC(O)(c2ccc(Cl)cc2)c2nnn(Cc3ccccc3)c2-c2ccccc2)cc1C (stereo not given) | 2.58 | >185.18 | 2.7 | >193.79 | > 500 | 1.04 | – | – | – | – | – | – | – | – | – | – | – | – |
| OC(CNc1ccc(F)cc1)(c1ccc(Cl)cc1)c1nnn(Cc2ccccc2)c1-c1ccccc1 (stereo not given) | 3.31 | >140.05 | 3.57 | >151.05 | > 500 | 1.07 | – | – | – | – | – | – | – | – | – | – | – | – |
| Cc1ccc(NCC(O)(c2ccc(Br)cc2)c2nnn(Cc3ccccc3)c2-c2ccccc2)cc1C (stereo not given) | 2.72 | >143.6 | 3.48 | >183.8 | > 500 | 1.27 | – | – | – | – | – | – | – | – | – | – | – | – |
| CCN(CC)CCCC(C)Nc1ccnc2cc(Cl)ccc12 (stereo not given) [CHLOROQUINE PHOSPHATE] | – | – | – | – | > 500 | – | – | – | – | – | – | – | – | – | – | – | – | – |
| OC(CNc1ccc(Br)cc1)(c1ccc(Cl)cc1)c1nnn(Cc2ccccc2)c1-c1ccccc1 (stereo not given) | 1.95 | >267.37 | 1.87 | >256.41 | > 500 | 0.95 | – | – | – | – | – | – | – | – | – | – | – | – |
| OC(CNc1cccc2ccccc12)(c1ccc(Cl)cc1)c1nnn(Cc2ccccc2)c1-c1ccc(Cl)cc1 (stereo not given) | 1.33 | 235.39 | 1.23 | 217.59 | 290 | 0.92 | tde | – | – | Active | – | – | – | – | – | – | – | – |
| OC(CNc1ccc(Br)cc1)(c1ccc(Cl)cc1)c1nnn(Cc2ccccc2)c1-c1ccc(Br)cc1 (stereo not given) | 0.87 | >233.64 | 2.04 | >574.71 | > 500 | 2.45 | – | Non-toxic | 27.2 | – | – | – | – | – | – | – | – | – |
| OC(CNc1ccc(F)cc1)(c1ccc(Cl)cc1)c1nnn(Cc2ccccc2)c1-c1ccc(F)cc1 (stereo not given) | 3.87 | >151.97 | 3.29 | >129.19 | > 500 | 0.85 | – | – | – | – | – | – | – | – | – | – | – | – |
| CC(C)c1ccc(-c2c(C(O)(CNc3ccc(Br)cc3)c3ccc(Cl)cc3)nnn2Cc2ccccc2)cc1 (stereo not given) | 0.3 | 73.26 | 2.11 | 515.3 | 155 | >7.03 | tde | Non-toxic | 86.8 | – | 4 | 44.4 | 1.59 | 1837.17 | 10 | 15 | 0.212 | 20 |
